In patent US20240398762A1, “PHARMACEUTICAL COMPOSITION WITH ANALGESIC AND/OR ANTIPRURITIC FUNCTIONS AND APPLICATION THEREOF” (PENGEKIPHEN BIOTECH LIMITED COMPANY, priority 2022, published 2024):
Where a name gives a salt, the structure may show the parent alone.

Assays:
miR-96−/− mice = experiment: Mechanical pain threshold (Von Frey paw withdrawal threshold) of hind paws after intragastric administration; format: in vivo, mouse; conditions: 1 h after administration; for dose group exhibiting the best analgesic effect: three doses tested
Procedure: In order to screen an analgesic drug with excellent oral efficacy, analgesic effects of intragastric administration of Nav1.7 inhibitor and Nav1.8 inhibitor in eight 3-6-month-old miR-96^−/− mice ([…] BIOTECH LIMITED COMPANY) were tested.
Firstly, mechanical pain thresholds of hind paws of the miR-96^−/− mice were measured. The eight miR-96^−/− mice were placed on an iron frame and covered with a plexiglass cover. After 30 min, paw withdrawal thresholds (PWT) of the mice were measured using Von Frey (DanMic Global, CA, USA). […] 1 h after the intragastric administration of 30 μg/kg, 60 μg/kg or 90 μg/kg of PF-06305591, the mechanical pain thresholds of the hind paws of the miR-96″ mice were measured.

[1] = tested on: subjects with painful diabetic peripheral neuropathy; conditions: McDonnell et al., Pain 2018; cited from earlier work

Q: With `NC(=O)[C@@H]1CC[C@H](c2ccc(OCc3ccccc3F)cc2)N1` [CNV1014802] as the compound, how does the “analgesic effect versus solvent control group” value (miR-96−/− mice; 20 mg/kg intragastric) read?
A: significant analgesic effects

Q: And the “analgesic effect versus solvent control group” value (miR-96−/− mice; 30 mg/kg intragastric)?
A: significant analgesic effects

Q: What about the “analgesic effect versus solvent control group” value (miR-96−/− mice; 40 mg/kg intragastric) of the same compound?
A: significant analgesic effects

Q: What about the “dose group exhibiting the best analgesic effect” value (miR-96−/− mice; intragastric) of the same compound?
A: 30 mg/kg

Q: With `NCC1(CC(=O)O)CCCCC1` [Gabapentin] as the compound, how does the “effect on mechanical pain thresholds” value (miR-96−/− mice; 50 mg/kg intragastric) read?
A: significantly improve the mechanical pain thresholds

Q: With `CC(C)(N)c1ncc(-c2ccc(OC(F)(F)F)cc2)[nH]1` [PF-04885614, 1-methyl-1-[4-(4-trifluoromethoxy-phenyl)-1H-imidazol-2-yl]-ethylamine] as the compound, how does the “analgesic effect versus solvent control group” value (miR-96−/− mice; 180 μg/kg intragastric) read?
A: significantly better than that of the solvent control group

Q: What about the “analgesic effect versus solvent control group” value (miR-96−/− mice; 270 μg/kg intragastric) of the same compound?
A: significantly better than that of the solvent control group

Q: What about the “dose group exhibiting the best analgesic effect” value (miR-96−/− mice; intragastric) of the same compound?
A: 0.18 mg/kg

Q: Which “analgesic effect in clinical studies” value [1] does the source give for `Nc1n[nH]cc1-c1cc(Cl)ccc1Oc1cc(F)c(S(=O)(=O)Nc2cscn2)cc1Cl` [PF-05089771, 4-[2-(3-amino-1H-pyrazol-4-yl)-4-chlorophenoxy]-5-chloro-2-fluoro-N-4-thiazolylbenzenesulfonamide tosylate] here?
A: does not exhibit desired analgesic effect

Q: And the “analgesic effect versus solvent control group” value (miR-96−/− mice; 4 mg/kg intragastric)?
A: significantly better than that of the solvent control group

Q: And the “analgesic effect versus solvent control group” value (miR-96−/− mice; 6 mg/kg intragastric)?
A: significantly better than that of the solvent control group

Q: What about the “efficacy of the 6 mg/kg-dose group compared with the 4 mg/kg-dose group” value (miR-96−/− mice; intragastric) of the same compound?
A: not better than that of the 4 mg/kg-dose group

Q: Which results are given for `C[C@@H](C(N)=O)[C@H](N)c1nc2cc(C(C)(C)C)ccc2[nH]1` [PF-06305591, (αR, βS)-β-Amino-6-(1,1-dimethylethyl)-α-methyl-1H-benzimidazole-2-propanamide dihydrate]?
A: analgesic effect versus solvent control group (miR-96−/− mice; 60 μg/kg intragastric): significantly better than that of the solvent control group; analgesic effect versus solvent control group (miR-96−/− mice; 90 μg/kg intragastric): significantly better than that of the solvent control group; dose group exhibiting the best analgesic effect (miR-96−/− mice; intragastric): 0.06 mg/kg

Q: For `N#Cc1cc(S(=O)(=O)Nc2ncns2)ccc1Oc1ccc(-c2cccc(C(F)(F)F)c2)cc1-c1ccnc(CNCCC2CCNCC2)c1` [PF-06456384, 3-cyano-4-[[3-[2-[[[2-(4-piperidinyl)ethyl]amino]methyl]-4-pyridinyl]-3′-(trifluoromethyl)[1,1′-biphenyl]-4-yl]oxy]-N-1,2,4-thiadiazol-5-yl-benzenesulfonamide trihydrochloride], which “analgesic effect versus solvent control group” value (miR-96−/− mice; 1 mg/kg intragastric) is on record?
A: significant analgesic effects

Q: And the “analgesic effect versus solvent control group” value (miR-96−/− mice; 2 mg/kg intragastric)?
A: significant analgesic effects

Q: And the “analgesic effect versus solvent control group” value (miR-96−/− mice; 3 mg/kg intragastric)?
A: significant analgesic effects

Q: And the “dose group exhibiting the best analgesic effect” value (miR-96−/− mice; intragastric)?
A: 2 mg/kg
